As a reminder, the DC50 is the concentration giving 50% degradation.

The first experiment deals with T1, ER (Homo sapiens, UniProt P03372).
T1 construct: host or cells: T47D and MCF7 human breast cancer cells
T1 sequence (P03372 1-595): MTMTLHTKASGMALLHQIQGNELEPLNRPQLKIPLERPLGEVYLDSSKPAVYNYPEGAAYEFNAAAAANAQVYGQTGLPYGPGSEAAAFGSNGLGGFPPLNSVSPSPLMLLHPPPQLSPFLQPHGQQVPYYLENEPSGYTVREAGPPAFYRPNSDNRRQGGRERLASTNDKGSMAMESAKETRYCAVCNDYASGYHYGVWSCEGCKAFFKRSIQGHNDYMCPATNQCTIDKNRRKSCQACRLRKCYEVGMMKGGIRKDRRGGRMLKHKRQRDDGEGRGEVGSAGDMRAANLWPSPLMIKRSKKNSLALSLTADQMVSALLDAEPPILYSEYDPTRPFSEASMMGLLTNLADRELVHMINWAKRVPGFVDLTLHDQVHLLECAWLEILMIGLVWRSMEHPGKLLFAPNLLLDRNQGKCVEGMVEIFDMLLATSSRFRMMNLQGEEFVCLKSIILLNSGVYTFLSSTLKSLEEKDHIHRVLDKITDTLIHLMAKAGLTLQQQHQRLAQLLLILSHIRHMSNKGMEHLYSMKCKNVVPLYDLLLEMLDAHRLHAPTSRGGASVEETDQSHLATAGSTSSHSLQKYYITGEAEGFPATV
The experiment is described as follows: ER degradation activity, in-cell western blot analysis in T47D cells. It is filed as cell-based. Conditions: 16 hours, Table A does not say which cell line (T47D or MCF7), read-out: Potency (DC50). The method in brief:
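Read-out is near-infrared fluorescence from an in-cell western, expressed as ER percentage relative to untreated and DMSO controls taken as 100%. T47D breast cancer cells received compound for 16 h in 0.5% DMSO.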
Turning to `C[C@@H]1Cc2c([nH]c3ccccc23)[C@@H](c2c(F)cc(N3CC(C(=O)N4CCC(N5Cc6cc7c(cc6C5)C(=O)N(C5CCC(=O)NC5=O)C7=O)CC4)C3)cc2F)N1CC(F)F` (stereo partly drawn) [E 236, 6-(1-(1-(4-((1R,3R)-2-(2,2-difluoroethyl)-3-methyl-2,3,4,9-tetrahydro-1H-pyrido[3,4-b]indol-1-yl)-3,5-difluorophenyl)azetidine-3-carbonyl)piperidin-4-yl)-2-(2,6-dioxopiperidin-3-yl)-6,7-dihydropyrrolo[3,4-f]isoindole-1,3(2H,5H)-dione], the DC50 was above 100 nM. Same read-out and setting: to `C[C@@H]1Cc2cc(O)ccc2[C@@H](c2c(F)cc(N3CC4(CCN(C(=O)CN5Cc6cc7c(cc6C5)C(=O)N(C5CCC(=O)NC5=O)C7=O)C4)C3)cc2F)N1CC(F)F` (stereo partly drawn) [E 43, 6-(2-(2-(4-((1S,3R)-2-(2,2-difluoroethyl)-6-hydroxy-3-methyl-1,2,3,4-tetrahydroisoquinolin-1-yl)-3,5-difluorophenyl)-2,6-diazaspiro[3.4]octan-6-yl)-2-oxoethyl)-2-(2,6-dioxopiperidin-3-yl)-6,7-dihydropyrrolo[3,4-f]isoindole-1,3(2H,5H)-dione] belongs below 10 nM. For the compound `O=C1CCC(N2C(=O)c3cc4c(cc3C2=O)CN(CC(=O)N2CCC3(CC2)CC(Oc2ccc([C@@H]5c6ccc(O)cc6CC[C@@H]5c5ccccc5)cc2)C3)C4)C(=O)N1` (stereo partly drawn) [E 220, 2-(2,6-dioxopiperidin-3-yl)-6-(2-(2-(4-((1R,2S)-6-hydroxy-2-phenyl-1,2,3,4-tetrahydronaphthalen-1-yl)phenoxy)-7-azaspiro[3.5]nonan-7-yl)-2-oxoethyl)-6,7-dihydropyrrolo[3,4-f]isoindole-1,3(2H,5H)-dione], the DC50 is above 100 nM.

As to `C[C@@H]1Cc2cc(O)ccc2[C@@H](c2c(F)cc(N3CCN(C(=O)[C@H]4CC[C@H](N5Cc6cc7c(cc6C5)C(=O)N(C5CCC(=O)NC5=O)C7=O)CC4)CC3)cc2F)N1CC(F)F` (mixture of isomers) [E 353, rac-6-((1S,4r)-4-(4-(4-((1S,3R)-2-(2,2-difluoroethyl)-6-hydroxy-3-methyl-1,2,3,4-tetrahydroisoquinolin-1-yl)-3,5-difluorophenyl)piperazine-1-carbonyl)cyclohexyl)-2-(2,6-dioxopiperidin-3-yl)-6,7-dihydropyrrolo[3,4-f]isoindole-1,3(2H,5H)-dione], the DC50 is above 100 nM. Regarding `O=C1CCC(N2C(=O)c3cc4c(cc3C2=O)CN(C(=O)CN2CCC3(CC2)CCN(c2ccc([C@@H]5c6ccc(O)cc6CC[C@@H]5c5ccccc5)cc2)C3)C4)C(=O)N1` (mixture of isomers) [E 141, Rac-2-(2,6-dioxopiperidin-3-yl)-6-(2-(2-(4-((1R,2S)-6-hydroxy-2-phenyl-1,2,3,4-tetrahydronaphthalen-1-yl)phenyl)-2,8-diazaspiro[4.5]decan-8-yl)acetyl)-6,7-dihydropyrrolo[3,4-f]isoindole-1,3(2H,5H)-dione], the DC50 is above 100 nM. Still for that read-out and setting: then `C[C@@H]1Cc2c([nH]c3ccccc23)[C@@H](c2ccc(N3CCC(C(=O)N4CCC(N5Cc6cc7c(cc6C5)C(=O)N(C5CCC(=O)NC5=O)C7=O)CC4)CC3)cc2F)N1CC(F)F` (stereo partly drawn) [E 302, 6-(1-(1-(4-((1R,3R)-2-(2,2-difluoroethyl)-3-methyl-2,3,4,9-tetrahydro-1H-pyrido[3,4-b]indol-1-yl)-3-fluorophenyl)piperidine-4-carbonyl)piperidin-4-yl)-2-(2,6-dioxopiperidin-3-yl)-6,7-dihydropyrrolo[3,4-f]isoindole-1,3(2H,5H)-dione], with below 10 nM. Still for that read-out and setting: to `O=C1CCC(N2C(=O)c3cc4c(cc3C2=O)CN(C(=O)CN2CCC3(CC2)CCN(c2c(F)cc([C@@H]5c6ccc(O)cc6CC[C@@H]5c5ccccc5)cc2F)C3)C4)C(=O)N1` (mixture of isomers) [E 155, Rac-6-(2-(2-(2,6-difluoro-4-((1R,2S)-6-hydroxy-2-phenyl-1,2,3,4-tetrahydronaphthalen-1-yl)phenyl)-2,8-diazaspiro[4.5]decan-8-yl)acetyl)-2-(2,6-dioxopiperidin-3-yl)-6,7-dihydropyrrolo[3,4-f]isoindole-1,3(2H,5H)-dione] belongs above 100 nM. The same measure, in the same setting: then `CN(C1CCC(CN2Cc3cc4c(cc3C2)C(=O)N(C2CCC(=O)NC2=O)C4=O)CC1)C1CCN(c2ccc([C@@H]3c4ccc(O)cc4CC[C@@H]3c3ccccc3)cc2)CC1` (stereo partly drawn) [E 289, 2-(2,6-dioxopiperidin-3-yl)-6-((4-((1-(4-((1R,2S)-6-hydroxy-2-phenyl-1,2,3,4-tetrahydronaphthalen-1-yl)phenyl)piperidin-4-yl)(methyl)amino)cyclohexyl)methyl)-6,7-dihydropyrrolo[3,4-f]isoindole-1,3(2H,5H)-dione], with above 100 nM. As for `C[C@@H]1Cc2c([nH]c3ccccc23)[C@@H](c2c(F)cc(N3CCC(N4CCC(CC(=O)N5Cc6cc7c(cc6C5)C(=O)N(C5CCC(=O)NC5=O)C7)CC4)CC3)cc2F)N1CC(F)F` (stereo partly drawn) [E 94, 3-(6-(2-(1′-(4-((1R,3R)-2-(2,2-difluoroethyl)-3-methyl-2,3,4,9-tetrahydro-1H-pyrido[3,4-b]indol-1-yl)-3,5-difluorophenyl)-[1,4′-bipiperidin]-4-yl)acetyl)-1-oxo-3,5,6,7-tetrahydropyrrolo[3,4-f]isoindol-2(1H)-yl)piperidine-2,6-dione], the DC50 is below 10 nM.

For `C[C@@H]1Cc2c([nH]c3ccccc23)[C@@H](c2c(F)cc(N3CC(C(=O)N4CCC(CN5Cc6cc7c(cc6C5)C(=O)N(C5CCC(=O)NC5=O)C7=O)CC4)C3)cc2F)N1CC(F)F` (stereo partly drawn) [E 121, 6-((1-(1-(4-((1R,3R)-2-(2,2-difluoroethyl)-3-methyl-2,3,4,9-tetrahydro-1H-pyrido[3,4-b]indol-1-yl)-3,5-difluorophenyl)azetidine-3-carbonyl)piperidin-4-yl)methyl)-2-(2,6-dioxopiperidin-3-yl)-6,7-dihydropyrrolo[3,4-f]isoindole-1,3(2H,5H)-dione], the DC50 was below 10 nM.

The experiment is the same for the next values; noted with them: compounds 16 hours, Table A does not say whether T47D or MCF7, read-out: Potency (DC50).
In the case of `COc1cc(N2CCC3(CCN(C(=O)CN4Cc5cc6c(cc5C4)C(=O)N(C4CCC(=O)NC4=O)C6=O)CC3)CC2)ccc1[C@@H]1c2[nH]c3ccccc3c2C[C@@H](C)N1CC(C)(C)F` (stereo partly drawn) [E 514, 2-(2,6-dioxopiperidin-3-yl)-6-(2-(9-(4-((1R,3R)-2-(2-fluoro-2-methylpropyl)-3-methyl-2,3,4,9-tetrahydro-1H-pyrido[3,4-b]indol-1-yl)-3-methoxyphenyl)-3,9-diazaspiro[5.5]undecan-3-yl)-2-oxoethyl)-6,7-dihydropyrrolo[3,4-f]isoindole-1,3(2H,5H)-dione], the DC50 was in the range of 10 to 100 nM. With `C[C@@H]1Cc2cc(O)ccc2[C@@H](c2c(F)cc(NC3CC4(CCN(C(=O)CN5Cc6cc7c(cc6C5)C(=O)N(C5CCC(=O)NC5=O)C7=O)CC4)C3)cc2F)N1CC(F)F` (stereo partly drawn) [E 451, 6-(2-(2-((4-((1S,3R)-2-(2,2-difluoroethyl)-6-hydroxy-3-methyl-1,2,3,4-tetrahydroisoquinolin-1-yl)-3,5-difluorophenyl)amino)-7-azaspiro[3.5]nonan-7-yl)-2-oxoethyl)-2-(2,6-dioxopiperidin-3-yl)-6,7-dihydropyrrolo[3,4-f]isoindole-1,3(2H,5H)-dione], the DC50 fell in the range of 10 to 100 nM. On the same count and under the same terms, then `C[C@@H]1Cc2c(ccc3[nH]ncc23)[C@@H](c2c(F)cc(NC3CN(C(=O)[C@H]4CC[C@@H](N5Cc6cc7c(cc6C5)C(=O)N(C5CCC(=O)NC5=O)C7=O)CC4)C3)cc2F)N1CC(F)F` (stereo partly shown) [E 424], with 10 to 100 nM.
